Test results taken from patent US20150366824A1, “INDUCTION OF ESTROGEN RECEPTOR BETA BY CHOLESTEROL BIOSYNTHESIS INHIBITORS AND METHODS OF TREATMENT OF CANCER” (THE CURATORS OF THE UNIVERSITY OF MISSOURI, priority 2012, published 2015).

What was measured:
BT-474 cells = assay: Sulforhodamine B (SRB) cell viability assay with ERβ-specific ligands; assay type: cell-based, human; conditions: for cell viability: Ro 48-8071 combined with ERβ agonist DPN: BT-474, 10 nM Ro 48-8071 ± 1 nM DPN, 48 h; for cell viability: Ro 48-8071 combined with ERβ antagonist PHTPP: BT-474, 10 nM Ro 48-8071 ± 10 or 100 nM PHTPP, 24 h
Description: FIG. 6. […] BT-474 cells were treated with 10 nM Ro 48-8071±1 nM DPN, or with DPN alone. Cell viability was determined after 48 h using the SRB assay.
FIG. 7. […] BT-474 cells treated with 10 nM Ro 48-8071 for 24 h±10 or 100 nM PH, or with PHTPP alone. Cell viability was determined after 24 h as described previously. […] The anti-proliferative effects of Ro 48-8071 in breast cancer cells is reduced when it is combined with ERβ antagonist.
The sulforhodamine B (SRB) assay was employed to evaluate the effect potent cholesterol biosynthesis inhibitor Ro 48-8071 alone or in combination with ERβ-specific ligands on viability of breast cancer cells, with slight modification of the original procedure established at NCI. Ro 48-8071, and ERβ-specific ligands (either an agonist DPN (diarylpropionitrile), or an antagonist PHTPP (4-[2-phenyl-5,7-bis(trifluoromethyl) pyrazolo[1,5-a]pyrimidin-3-yl]phenol)) (“PH”) were used in BT-474, T47-D, MDA-MB-231, and BT-20 human breast cancer cells in this study.
Accordingly, cells were seeded in 96-well plates in 100 μL culture medium and incubated overnight at 37° C. with 5% CO2. Culture medium was removed after 24 h, and the attached cells were washed with DMEM/F12 medium and treated by Ro 48-8071 alone or with ERβ-specific ligands at various concentrations for 24-48 hrs. […]
The surviving or adherent cells were fixed in situ by withdrawing the growth medium and adding 100 μL of PBS and 100 μL of 50% cold trichloroacetic acid and then incubating at 4° C. for 1 h. Attached cells (that had survived) were washed 5 times with ice-water, dried at room temperature (RT), and then stained with 50 μL […] SRB for 8 min at room temperature (RT). Unbound dye was removed by washing 5 times with cold 1% acetic acid, and the plates were dried at RT. Bound stain was solubilized with 150 μL 10 mM Tris buffer, and absorbance of samples measured at 520 nm with a SpecTRA MAX 190 microplate reader (Sunnyvale, Calif.). Six wells were used for each concentration, and each experiment was performed at least twice.

OSC = target: T1, OSC (Homo sapiens, UniProt P48449); conditions: cited from earlier work
T1 sequence (P48449 1-732): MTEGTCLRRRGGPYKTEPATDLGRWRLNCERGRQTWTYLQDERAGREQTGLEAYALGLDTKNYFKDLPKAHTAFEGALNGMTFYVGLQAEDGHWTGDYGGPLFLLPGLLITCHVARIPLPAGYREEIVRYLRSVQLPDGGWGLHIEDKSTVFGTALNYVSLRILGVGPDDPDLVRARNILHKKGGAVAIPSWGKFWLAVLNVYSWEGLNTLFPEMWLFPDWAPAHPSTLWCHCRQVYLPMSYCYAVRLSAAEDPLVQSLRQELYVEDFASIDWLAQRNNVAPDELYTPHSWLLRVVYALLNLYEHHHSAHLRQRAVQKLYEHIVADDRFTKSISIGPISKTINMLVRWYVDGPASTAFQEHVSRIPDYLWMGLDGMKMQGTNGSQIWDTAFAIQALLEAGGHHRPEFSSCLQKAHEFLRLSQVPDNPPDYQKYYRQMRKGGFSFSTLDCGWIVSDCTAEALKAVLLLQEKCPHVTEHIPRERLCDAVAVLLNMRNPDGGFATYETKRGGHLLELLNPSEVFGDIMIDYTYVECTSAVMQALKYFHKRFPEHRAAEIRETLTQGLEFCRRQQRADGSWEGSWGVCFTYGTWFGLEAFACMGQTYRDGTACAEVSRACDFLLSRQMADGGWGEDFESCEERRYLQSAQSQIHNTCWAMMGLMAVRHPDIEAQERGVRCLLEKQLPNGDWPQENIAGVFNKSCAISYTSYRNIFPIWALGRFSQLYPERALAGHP

ERα = assay: Western blot analysis of ERα protein in breast cancer cells; assay type: cell-based, human; conditions: for expression of ERα protein: treatment for six hours, dose-dependent
Description: (§1) Cells used in these experiments included both the ERα+ve as well as ERα-ve cells, including triple negative types which are very aggressive growing. The ERα+ve cells used were T47-D and BT-474 cells. The ERα-ve cells used were MDA-MB-231, BT-20 and SkBr-3 cells. All cells were grown in media as specified in the data sheet from A TCC, provider of cell lines.
(§2) Whole cell extracts of breast cancer cells were prepared using a whole cell extract kit (Active Motif, Carlsbad, Calif.). Briefly, after treatment with Ro 48-8071, cells were washed once with PBS, harvested with 0.05% trypsin-EDT A, and centrifuged at 200 g at 4° C. for 5 min. Cell pellets were resuspended in lysis buffer and supernatant was transferred into pre-chilled microcentrifuge tubes and incubated on ice for 30 minutes. Samples were centrifuged at 14,000×g at 4° C. for 20 minutes, and supernatant was transferred to pre-chilled microcentrifuge tubes. Aliquots of samples were stored at −80° C. For western blot analysis, samples containing 50 μg of protein were separated in a NuPAGE 10% Bis-Tris Gel (Invitrogen, Carlsbad, Calif.).
(§3) Electrophoresis was performed at 120 V for 2 h using NuPAGE MES-SDS Running Buffer. Separated proteins were transferred to polyvinylidene difluoride membranes (BioRad Laboratories, Hercules, Calif.) at 35 V for 1.5 h.
(§4) Blots were blocked at room temperature (RT) for 1 hr in TBS containing 0.1% Tween 20 (TBS-T) and 5% nonfat dry milk and incubated with antibodies for ERα (dilution 1:200) for 2 h at room temperature, and ERβ (dilution 1:150) at 4° C. overnight. Blots were washed 3 times with TBS-T and incubated with secondary antibody for 1 h at RT before being washed a further 7 times with TBS-T.
(§5) Immunoreactive bands were visualized using an ECL Plus detection kit (Amersham, Pharmacia Biotech, Arlington Heights, Ill.). Membranes were stripped and re-blotted for beta-actin (Sigma), which was used as a control for protein loading. β-actin was used as a loading control to determine amount of total protein loaded in each lane.

ERβ = assay: Western blot analysis of ERβ protein in breast cancer cells; assay type: cell-based, human; conditions: for expression of ERβ protein: treatment for six hours, dose-dependent
Description: as §1, §2, §3, §4, §5

[1] = test system: human breast cancer xenografts; assay: Human breast cancer xenografts in nude mice; assay type: in vivo
Description: Female athymic nu/nu nude mice, 5 to 6 weeks-old (18-22 g) may be purchased from a number of suppliers, such as Harland Sprague-Dawley, Inc. Nude mice are inoculated with 17β-estradiol pellets (1.7 mg/pellet, 60 days release) 48 hours before inoculating tumor cells. BT-474 human breast cancer cells, 5×10^6 in 0.15 ml solution mixed with matrigel and DMEM/F12 medium (4/1, v/v) are injected into each flank of mouse subcutaneously and both flanks of each mouse are injected. When tumor volume reaches around 100 mm3, animal are randomly assigned to three groups and the treatment started with RO 48-8071 (5 mg/kg/day or 10 mg/kg/day) via tail-vein injection for five days, followed by same treatment every other day for five additional times Animals in control group receive the vehicle alone under identical conditions. Tumor volumes are measured by a digital caliper and calculated using the formula (L×W×H)×0.5236.

Bcl-2 = assay: Western blot analysis of Bcl-2 protein in T47-D breast cancer cells; assay type: cell-based, human; conditions: treatment for six hours
T47-D cells = assay: SRB cell viability assay after ERβ siRNA knockdown; assay type: cell-based, human; conditions: 60 nM ERβ siRNA, Ro 48-8071 10 nM, 48 h
Description: FIG. 5. […] T47-D cells were treated with either ERβ siRNA (30 and 60 nM; siERβ, Santa Cruz), scrambled RNA (siC) or transfection reagent alone (C) for 72 h (upper panel). In the group treated with 60 nM siRNA, cells were treated with Ro 48-8071 (10 nM) or vehicle alone (C) for 48 h (lower panel) and tumor cell viability was determined using SRB assay as described.
ERβ siRNA (human) and control siRNA were obtained from Santa Cruz Biotechnology, Inc. (Santa Cruz, Calif., e.g. catalog no.s SC-35325 and SC-37007). ERβ siRNA is a pool of 3 target-specific 20-25 nt siRNA designed to knock down ERβ gene expression.
Transfection reagent, oligonucleotides and medium, Opti-MEM were from Invitrogen (Carlsbad, Calif.). The day before transfection, cells were seeded in six-well plates at a density of 8×10̂4 cells per well with 10% FBS DMEM/F12 medium.
To make solution A, ERβ siRNA was diluted in Opti-MEM, resulting in a final concentration of 30 or 60 nM in 100 μl/well and incubate for 5 min at room temperature (RT). […]
The surviving or adherent cells were fixed in situ by withdrawing the growth medium and adding 100 μL of PBS and 100 μL of 50% cold trichloroacetic acid and then incubating at 4° C. for 1 h. […] Bound stain was solubilized with 150 μL 10 mM Tris buffer, and absorbance of samples measured at 520 nm with a SpecTRA MAX 190 microplate reader (Sunnyvale, Calif.). […]

[2] = low dose, 10 or 100 nM, seven days

Question: Which “cell viability: Ro 48-8071 combined with ERβ agonist DPN” value (BT-474 cells) does the source give for `N#CC(Cc1ccc(O)cc1)c1ccc(O)cc1` (stereo not drawn) [DPN, 2,3-bis(4-hydroxyphenyl)-propionitrile] here?
Answer: The value was “potentiates the ability of Ro 48-8071 to reduce viability”.

Question: For `Oc1ccc(-c2c(-c3ccccc3)nn3c(C(F)(F)F)cc(C(F)(F)F)nc23)cc1` [PHTPP, 4-[2-phenyl-5,7-bis(trifluoromethyl)pyrazolo[1,5-a]pyrimidin-3-yl]phenol], which “cell viability: Ro 48-8071 combined with ERβ antagonist PHTPP” value (BT-474 cells) is on record?
Answer: The value was “blocks the anti-proliferative effect of Ro 48-8071”.

Question: Which “OSC inhibition in words” value (OSC) does the source give for `C=CCN(C)CCCCCCOc1ccc(C(=O)c2ccc(Br)cc2)c(F)c1` [Ro 48-8071, (4-bromophenyl)[2-fluoro-4-[[6-(methyl-2-propenylamino)hexyl]oxy]phenyl]-methanone] here?
Answer: The value was “potent inhibitor of OSC”.

Question: And the “expression of ERα protein” value (ERα; BT-474 breast cancer cells)?
Answer: Its value is “suppressed”.

Question: And the “expression of ERα protein” value (ERα; T47-D breast cancer cells)?
Answer: Its value is “suppressed”.

Question: And the “expression of ERα” value (ERα; [2])?
Answer: Its value is “suppressed”.

Question: What about the “cell viability: Ro 48-8071 combined with ERβ agonist DPN” value (BT-474 cells) of the same compound?
Answer: The value was “increased cell death more effectively (additively)”.

Question: What about the “cell viability: Ro 48-8071 combined with ERβ antagonist PHTPP” value (BT-474 cells) of the same compound?
Answer: Its value is “reduced”.

Question: What about the “expression of ERβ protein” value (ERβ; BT-474 breast cancer cells) of the same compound?
Answer: Its value is “induced”.

Question: And the “expression of ERβ” value (ERβ; ERα-negative (triple-negative) BT-20 cells)?
Answer: The value was “stimulates expression of ERβ”.

Question: What about the “expression of ERβ” value (ERβ; ERα-negative (triple-negative) MDA-MB-231 cells) of the same compound?
Answer: Its value is “stimulates expression of ERβ”.

Question: And the “expression of ERβ protein” value (ERβ; T47-D breast cancer cells)?
Answer: Its value is “induced”.

Question: And the “expression of ERβ” value (ERβ; [2])?
Answer: Its value is “induced”.

Question: What about the “growth of human breast cancer xenografts” value [1] of the same compound?
Answer: Its value is “inhibit growing of human breast cancer xenografts”.

Question: And the “toxicity in xenograft-bearing nude mice” value [1]?
Answer: Its value is “without toxicity”.

Question: What about the “expression of Bcl-2 protein” value (Bcl-2) of the same compound?
Answer: The value was “decreased with increasing dose”.

Question: And the “tumor cell viability: effect of ERβ knockdown on the anti-proliferative effect” value (T47-D cells)?
Answer: The value was “blocked the anti-proliferative effect”.

Question: Which “OSC inhibition in words” value (OSC) does the source give for `CCN(CC)CCO[C@H]1CC[C@@]2(C)C(=CC[C@@H]3[C@@H]2CC[C@]2(C)C(=O)CC[C@@H]32)C1` [U18666A, 3-beta-(2-(diethylamino)ethoxy)androst-5-en-17-one] here?
Answer: Its value is “potent inhibitor of OSC”.
